Data reported in patent US9980943B2, “Methods of treating muscular dystrophy” (BOARD OF REGENTS OF THE NEVADA SYSTEM OF HIGHER EDUCATION, …, priority 2013, dated 2018).

Legend:
Format in all cases: cell-based, mouse
[1] = system: β-galactosidase in CMV-LacZ C2C12 myotubes; test: CMV-LacZ secondary screen in C2C12 myotubes (β-Gal stabilizing assay); details: C2C12 CMV-LacZ myotubes, fold relative to DMSO
Method in brief: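 CMV-LacZ C2C12 line (clonal, FDG-screened); myoblasts/myotubes dosed 0.5–40 μM (0.5, 1, 5, 10, 20, 40 μM); n=2 per point; β-gal stabilization read-out.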

[2] = system: α7 integrin (LacZ reporter in α7+/LacZ myotubes); test: Myotube α7 integrin FDG assay (Burkin assay in myotubes, 96-well); details: myotubes
[3] = system: α7 integrin (LacZ reporter in α7βgal+/− myoblasts); test: Myoblast α7+/LacZ integrin FDG assay (Burkin assay in myoblasts, 96-well); details: α7+/LacZ myoblasts, 96-well

SMILES | CMV-LACZ in Myotubes, signal relative to DMSO ([1]; 5 uM) | CMV-LACZ in Myotubes, signal relative to DMSO ([1]; 10 uM) | CMV-LACZ in Myotubes, signal relative to DMSO ([1]; 20 uM) | CMV-LACZ in Myotubes, signal relative to DMSO ([1]; 40 uM) | Burkin Assay in Myotubes (signal relative to DMSO) ([2]; 0.5 uM) | Burkin Assay in Myotubes (signal relative to DMSO) ([2]; 1 uM) | Burkin Assay in Myotubes (signal relative to DMSO) ([2]; 5 uM) | Burkin Assay in Myotubes (signal relative to DMSO) ([2]; 10 uM) | Burkin Assay in Myotubes (signal relative to DMSO) ([2]; 20 uM) | Burkin Assay in Myotubes (signal relative to DMSO) ([2]; 40 uM) | Burkin Assay in Myoblasts, value relative to DMSO ([3]; 0.5 uM) | Burkin Assay in Myoblasts, value relative to DMSO ([3]; 1 uM) | Burkin Assay in Myoblasts, value relative to DMSO ([3]; 5 uM) | Burkin Assay in Myoblasts, value relative to DMSO ([3]; 10 uM) | Burkin Assay in Myoblasts, value relative to DMSO ([3]; 20 uM) | Burkin Assay in Myoblasts, value relative to DMSO ([3]; 40 uM) | other results
COC(=O)c1ccc(COC(=O)CNC(=O)c2cccs2)cc1 [MLS001123810-01] | 0.8812 | 0.815 | 1.159 | 0.9346 | 0.974 | 0.9657 | 1.417 | 1.116 | 0.9515 | 0.9694 | 0.9767 | 0.9524 | 0.9782 | 0.9779 | 0.8853 | 0.8729 | 
CNC(=O)/C(=C\c1cccc(Oc2ccccc2)c1)NC(=O)c1ccccc1 [MLS000389677-01] | 0.8142 | 0.7418 | 1.019 | 0.761 |  |  |  |  |  |  |  |  |  |  |  |  | Burkin Assay in Myotubes, α7 integrin LacZ reporter signal relative to DMSO ([2]; 0.5 uM): 1.005; Burkin Assay in Myotubes, α7 integrin LacZ reporter signal relative to DMSO ([2]; 1 uM): 0.9156; Burkin Assay in Myotubes, α7 integrin LacZ reporter signal relative to DMSO ([2]; 5 uM): 1.109; Burkin Assay in Myotubes, α7 integrin LacZ reporter signal relative to DMSO ([2]; 10 uM): 0.9956; Burkin Assay in Myotubes, α7 integrin LacZ reporter signal relative to DMSO ([2]; 20 uM): 0.6421; Burkin Assay in Myotubes, α7 integrin LacZ reporter signal relative to DMSO ([2]; 40 uM): 0.953; Burkin Assay in Myoblasts, signal relative to DMSO ([3]; 0.5 uM): 0.5325; Burkin Assay in Myoblasts, signal relative to DMSO ([3]; 1 uM): 0.8831; Burkin Assay in Myoblasts, signal relative to DMSO ([3]; 5 uM): 0.8426; Burkin Assay in Myoblasts, signal relative to DMSO ([3]; 10 uM): 0.7976; Burkin Assay in Myoblasts, signal relative to DMSO ([3]; 20 uM): 0.6619; Burkin Assay in Myoblasts, signal relative to DMSO ([3]; 40 uM): 0.6089
O=C(Nc1ccc(Cl)cc1N1CCOCC1)C1CCCCC1 [MLS001060549-01] | 1.322 | 0.8952 | 0.8814 | 1.075 | 0.8181 | 1.071 | 0.9783 | 1.111 | 0.9391 | 0.9134 | 1.056 | 1.204 | 1.012 | 1.072 | 0.7731 | 0.9411 | 
COC(=O)c1ccc(C2C(C(=O)c3cc4ccccc4o3)=C(O)C(=O)N2CCN2CCOCC2)cc1 (stereo not shown) [MLS001146463-01] | 1.074 | 0.9392 | 1.06 | 1.141 | 0.8827 | 0.8032 | 1.216 | 0.7514 | 0.8465 | 0.8424 | 1.026 | 0.9781 | 0.9027 | 0.9293 | 0.7318 | 0.8061 | 
